The assay concerns the target T1, human mGlu4 receptor (Homo sapiens, UniProt Q14833).
T1 construct: expressed in transfected cells; host or cells: HEK-293 (monoclonal, stably transfected)
Nature of the assay: Ca2+ mobilization in vitro assay on recombinant human mGlu4 expressed in HEK293 cells. It counts as cell-based. To be noted: HEK-293 cells stably expressing human mGlu4; L-AP4 added at EC20; Fluo-4 fluorescence; read-out: EC50 (uM) mGlu4 PAM. As for the experimental part:
Determination of EC50 Values Using a Ca2+ Mobilization In Vitro Assay on Recombinant Human mGlu4 Expressed in HEK293 Cells:
A monoclonal HEK-293 cell line stably transfected with a cDNA encoding for the human mGlu4 receptor was generated; for the work with mGlu4 Positive Allosteric Modulators (PAMs), a cell line with low receptor expression levels and low constitutive receptor activity was selected to allow the differentiation of agonistic versus PAM activity. Cells were cultured according to standard protocols (Freshney, 2000) in Dulbecco's Modified Eagle Medium with high glucose supplemented with 1 mM glutamine, 10% (vol/vol) heat-inactivated bovine calf serum, Penicillin/Streptomycin, 50 μg/ml hygromycin and 15 μg/ml blasticidin (all cell culture reagents and antibiotics from Invitrogen, Basel, Switzerland).
About 24 hrs before an experiment, 5×10^4 cells/well were seeded in poly-D-lysine coated, black/clear-bottomed 96-well plates. The cells were loaded with 2.5 μM Fluo-4 AM in loading buffer (1×HBSS, 20 mM HEPES) for 1 hr at 37° C. and washed five times with loading buffer. The cells were transferred into a Functional Drug Screening System 7000 (Hamamatsu, Paris, France), and 11 half logarithmic serial dilutions of test compound at 37° C. were added and the cells were incubated for 10-30 min. with on-line recording of fluorescence. Following this pre-incubation step, the agonist (2S)-2-amino-4-phosphonobutanoic acid (L-AP4) was added to the cells at a concentration corresponding to EC20 with on-line recording of fluorescence; in order to account for day-to-day variations in the responsiveness of cells, the EC20 of L-AP4 was determined immediately ahead of each experiment by recording of a full dose-response curve of L-AP4.
Responses were measured as peak increase in fluorescence minus basal (i.e. fluorescence without addition of L-AP4), normalized to the maximal stimulatory effect obtained with saturating concentrations of L-AP4. Graphs were plotted with the % maximal stimulatory using XLfit, a curve fitting program that iteratively plots the data using Levenburg Marquardt algorithm. The single site competition analysis equation used was y=A+((B−A)/(1+((x/C)D))), where y is the % maximal stimulatory effect, A is the minimum y, B is the maximum y, C is the EC50, x is the log 10 of the concentration of the competing compound and D is the slope of the curve (the Hill Coefficient). From these curves the EC50 (drug concentration at which 50% of the maximal receptor activation was achieved), the Hill coefficient as well as the maximal response in % of the maximal stimulatory effect obtained with saturating concentrations of L-AP4 were calculated (see Fig. 1).
A depression of the signal observed after addition of the EC20 concentration of L-AP4 was indicative of an inhibitory activity of the test compound.
(In general: A change in cytosolic calcium serves as a functional read-out for many receptors and channels.)
T1 sequence (Q14833 33-912): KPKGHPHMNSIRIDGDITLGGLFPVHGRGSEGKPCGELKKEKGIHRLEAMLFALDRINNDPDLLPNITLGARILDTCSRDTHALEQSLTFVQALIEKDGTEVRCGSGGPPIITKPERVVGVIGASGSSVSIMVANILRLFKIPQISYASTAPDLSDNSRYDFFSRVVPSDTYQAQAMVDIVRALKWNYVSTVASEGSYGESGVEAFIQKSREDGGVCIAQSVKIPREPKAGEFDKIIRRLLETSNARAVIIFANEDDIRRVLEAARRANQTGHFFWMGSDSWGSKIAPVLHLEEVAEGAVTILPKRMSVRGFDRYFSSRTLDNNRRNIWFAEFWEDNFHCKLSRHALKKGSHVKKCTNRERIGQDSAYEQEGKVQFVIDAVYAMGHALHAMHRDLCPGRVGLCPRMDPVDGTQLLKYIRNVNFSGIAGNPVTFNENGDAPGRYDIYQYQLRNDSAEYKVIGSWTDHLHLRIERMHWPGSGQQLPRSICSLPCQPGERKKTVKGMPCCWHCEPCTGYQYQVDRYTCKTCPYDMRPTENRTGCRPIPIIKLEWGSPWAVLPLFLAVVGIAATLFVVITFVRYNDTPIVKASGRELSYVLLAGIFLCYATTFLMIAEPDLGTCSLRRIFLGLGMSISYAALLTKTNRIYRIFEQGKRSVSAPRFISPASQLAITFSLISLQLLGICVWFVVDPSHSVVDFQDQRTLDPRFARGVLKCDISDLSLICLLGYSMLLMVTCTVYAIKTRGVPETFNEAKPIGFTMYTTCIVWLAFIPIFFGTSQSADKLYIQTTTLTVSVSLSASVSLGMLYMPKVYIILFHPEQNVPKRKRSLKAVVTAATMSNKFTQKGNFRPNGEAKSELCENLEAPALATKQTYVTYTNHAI
The term EC50 denotes the concentration that produces a half-maximal response. With `Cn1ccc(-c2cnc3n2C2(CC2)C(=O)N3c2c(F)cc(-c3ccc(C(C)(F)F)cc3)cc2F)n1` [Example 25, 7′-[4-[4-(1,1-difluoroethyl)phenyl]-2,6-difluoro-phenyl]-3′-(1-methylpyrazol-3-yl)spiro[cyclopropane-1,5′-imidazo[1,2-a]imidazole]-6′-one], the EC50 was 0.1 µM.
Consider `Cn1ccc(-c2cnc3n2C2(CC2)C(=O)N3c2c(F)cc(C#Cc3ccccc3)cc2F)n1` [Example 26, 1′-(2,6-difluoro-4-(phenylethynyl)phenyl)-5′-(1-methyl-1H-pyrazol-3-yl)spiro[cyclopropane-1,3′-imidazo[1,2-a]imidazol]-2′(1′H)-one], for which the EC50 turned out to be 0.104 µM.
Take `O=C1N(c2c(F)cc(C#Cc3ccccc3)cc2F)c2ncc(-c3cc[nH]n3)n2C12CC2` [Example 27, 3-[2,6-Difluoro-4-(2-phenylethynyl)phenyl]-6-(1H-pyrazol-3-yl)-2,3-dihydrospiro[[1,3]diazolo[1,2-a]-imidazole-1,1′-cyclopropane]-2-one]: the EC50 stood at 0.121 µM.
Consider `O=C1N(c2c(F)cc(C#Cc3cccnc3)cc2F)c2ncc(-c3cc[nH]n3)n2C12CC2` [Example 28, 7′-[2,6-difluoro-4-[2-(3-pyridyl)ethynyl]phenyl]-3′-(1H-pyrazol-3-yl)spiro[cyclopropane-1,5′-imidazo[1,2-a]imidazole]-6′-one], for which the EC50 is 0.135 µM.
As to `Cn1cc(-c2cnc3n2C2(CC2)C(=O)N3c2c(F)cc(C#Cc3ccccc3)cc2F)cn1` [Example 29, 3-[2,6-Difluoro-4-(2-phenylethynyl)phenyl]-6-(1-methyl-1H-pyrazol-4-yl)-2,3-dihydrospiro[[1,3]diazolo[1,2-a]imidazole-1,1′-cyclopropane]-2-one], the EC50 was 0.139 µM.
In the case of `CC1(C)C(=O)N(c2c(F)cc(C#Cc3ccccc3)cc2F)c2ncc(-c3ccccc3)n21` [Example 31, 1-(2,6-difluoro-4-(phenylethynyl)phenyl)-3,3-dimethyl-5-phenyl-1H-imidazo[1,2-a]imidazol-2(3H)-one], the EC50 worked out at 0.243 µM.
Under `O=C1N(c2c(F)cc(C#Cc3ccccc3)cc2F)c2ncc(-c3ccncc3)n2C12CC2` [Example 32, 3-[2,6-Difluoro-4-(2-phenylethynyl)phenyl]-6-(pyridin-4-yl)-2,3-dihydrospiro[[1,3]diazolo[1,2-a]imidazole-1,1′-cyclopropane]-2-one] stands 0.156 µM; under `O=C1N(c2c(F)cc(C#Cc3ccccc3)cc2F)c2ncc(-c3cccnc3)n2C12CC2` [Example 33, 3-[2,6-Difluoro-4-(2-phenylethynyl)phenyl]-6-(pyridin-3-yl)-2,3-dihydrospiro[[1,3]diazolo[1,2-a]imidazole-1,1′-cyclopropane]-2-one], 0.178 µM.
With `Cn1cc(-c2cnc3n2C(C)(C)C(=O)N3c2c(F)cc(C#Cc3ccccc3)cc2Cl)cn1` [Example 34, 1-(2-chloro-6-fluoro-4-(phenylethynyl)phenyl)-3,3-dimethyl-5-(1-methyl-1H-pyrazol-4-yl)-1H-imidazo[1,2-a]imidazol-2(3H)-one], the EC50 amounted to 0.195 µM.
Under `Cn1cc(-c2cnc3n2C2(CC2)C(=O)N3c2c(F)cc(-c3ccc(C(C)(F)F)cc3)cc2F)cn1` [Example 35, 1′-(4′-(1,1-difluoroethyl)-3,5-difluoro-[1,1′-biphenyl]-4-yl)-5′-(1-methyl-1H-pyrazol-4-yl)spiro[cyclopropane-1,3′-imidazo[1,2-a]imidazol]-2′(1′H)-one] stands 0.227 µM.
Under `Cn1ccc(-c2cnc3n2C(C)(C)C(=O)N3c2c(F)cc(C#Cc3ccccc3)cc2Cl)n1` [Example 36, 1-(2-chloro-6-fluoro-4-(phenylethynyl)phenyl)-3,3-dimethyl-5-(1-methyl-1H-pyrazol-3-yl)-1H-imidazo[1,2-a]imidazol-2(3H)-one] stands 0.252 µM.

These data come from US11345708B2, “Substituted imidazo[1,2-a]imidazoles as modulators of metabotropic glutamate receptor 4 activity” (Hoffmann-La Roche Inc., priority 2017, dated 2022).
